According to patent publication US4946839A, “Azetidine derivatives, compositions and methods of treating” (priority 1987, dated 1990):

Legend:
[1] = tested on: GC1 receptor; test: calcium influx stimulated by excitatory amino acids in primary cultures of cerebellar granule cells (GC1); assay type: cell-based, rat; details: for Calcium Influx % of stimulation by 10 μM GLU: 10 μM GLU (Table 2)
Protocol: (§1) Studies described hereinbelow on the usefulness of the compounds were performed on primary cultures of cerebellar granule cells prepared from 8-day old rats according to the procedures as set forth in Wroblewski et al., Neuropharmacology 24(9), 919-921 (1985). These cultures are characterized by the presence of four subtypes of excitatory amino acid receptors, classified on the basis of the coupling of their recognition sites to specific signal transduction systems, as well as according to the pharmacology of their recognition sites. The classification distinguishes between excitatory amino acid recognition sites coupled with PI hydrolysis (Gp) and those coupled with the activation of Ca^2+ (GC). This is disclosed in greater detail in Wroblewski et al. Proc. Natl. Acad. Sci. […], 5068-5072 (1987) GP1 and GC1 receptors are activated by glutamate, aspartate, N-methyl-D-aspartate (NMDA), antagonized by 2-amino-5-phosphonovalerate (APV), and inhibited by Mg^2+ . These two receptor subtypes correspond to the NMDA receptor, however, two distinct receptors must be postulated on the basis of their signal transducing mechanisms. The GP2 receptor is activated by glutamate and quisqualate, and is insensitive to Mg^2 + and APV. The GC2 receptor is activated by kainate and preferentially antagonized by cis-piperidine-2,3-dicarboxylate. The GC2 receptor is also insensitive to Mg^2+ inhibition. These two receptors correspond to the quisqualate and kainate receptors, respectively.
(§2) Cis-azetidine-2,4-dicarboxylic acid and derivatives selectively potentiate signal transduction at the GC1 and GP1 receptors. Referring to Table 1 the influx of calcium stimulated by NMDA, GLU, ASP and […] acting at the GC1 receptor is potentiated by cis-azetidine-2,4-dicarboxylic acid, while the action of KAIN at the GC2 receptor is not affected.

[2] = tested on: GP1 receptor; test: PI hydrolysis stimulated by GLU in cerebellar granule cells; assay type: cell-based, rat; details: 20 μM GLU (Table 2); * = antagonistic activity
Protocol: as §1, §2

[3] = tested on: NMDA receptor subtype; details: icv NMDA; cited from earlier work
[4] = tested on: GC1 receptor; test: inhibition of ASP-stimulated calcium influx by phencyclidine and its prevention; assay type: cell-based, rat
Protocol: as §1
(§3) Phencyclidine (PCP), once used as an anaesthetic, produces strong psychotropic effects manifested in humans by a state of sensory isolation, hallucinations and confusional states. It is one of the most widely abused drugs in the United States. One of the possible mechanisms of action of PCP involves the noncompetitive inhibition of the signal transduction at excitatory amino acid receptors, through allosteric interaction at a site distinct from the primary transmitter site (see Proc. Natl. Acad. Sci. USA discussed above).

[5] = tested on: GC2 receptor; test: calcium influx stimulated by kainate at the GC2 receptor in cerebellar granule cells; assay type: cell-based, rat
Protocol: as §1, with “These two receptors correspond to the quisqualate and kainate receptors, respectively.” left out

[6] = tested on: binding site for PCP; test: [^3 H]PCP radioligand binding; details: radioligand binding studies
From the text: as §3

[7] = tested on: GC1 receptor; test: calcium influx stimulated by GLU in the absence and presence of Az5; assay type: cell-based, rat
Protocol: as §1
Azxetidines increase the potency but not the efficacy of GLU action at the GC1 receptor. […] This indicates a 7-fold potentiation of the action of GLU.

[8] = tested on: NMDA receptor subtype; test: cGMP content in the cerebellum after icv injection of NMDA; assay type: in vivo, rat; set-up: cGMP: unit not given here
Protocol: The action of the NMDA receptor subtype can be estimated in vivo by measuring the changes in the content of cyclic GMP (cGMP) in the rat cerebellum after intracerebroventricular injections of NMDA. […] In terms of its pharmacology and of its mechanism of signal transduction the active receptor in the above conditions can be compared to the CC1 reporter measured in cultures of cerebellar granule cells.
In two series of experiments rats were injected icv with NMDA together with or without cis-azetidine-2,4-dicarboxylic acid.

Structure (SMILES): COC(=O)[C@@H]1C[C@H](C(=O)OC(C)(C)C)N1 (relative stereo) [Az1, cis-azetidine-2,4-dicarboxylic acid t-butyl methyl ester]
- Calcium Influx % of stimulation by 10 μM GLU [1]: 107%
- % activity (potentiation of calcium influx) ([1]; agonist Glu 10 μM (Table 3)): 107%
- PI hydrolysis % of stimulation by 20 μM GLU [2]: 117%

Structure (SMILES): COC(=O)[C@H]1C[C@H](C(=O)OC(C)(C)C)N1 (relative stereo) [Az2, trans-azetidine-2,4-dicarboxylic acid-t-butyl methyl ester]
- Calcium Influx % of stimulation by 10 μM GLU [1]: 104%

Structure (SMILES): CC(C)(C)OC(=O)[C@H]1C[C@@H](C(=O)O)N1 (relative stereo) [Az3, cis-azetidine-2,4-dicarboxylic acid mono-t-butyl ester]
- Calcium Influx % of stimulation by 10 μM GLU [1]: 141%
- % activity (potentiation of calcium influx) ([1]; agonist Glu 10 μM (Table 3)): 141%
- % activity (potentiation of calcium influx) ([1]; agonist Glu 20 μM (Table 3)): 136%
- PI hydrolysis % of stimulation by 20 μM GLU [2]: 125%

Structure (SMILES): CC(C)(C)OC(=O)[C@H]1C[C@H](C(=O)O)N1 (relative stereo) [Az4, trans-azetidine-2,4-dicarboxylic acid mono-t-butyl ester]
- Calcium Influx % of stimulation by 10 μM GLU [1]: 100%
- PI hydrolysis % of stimulation by 20 μM GLU [2]: 109%

Structure (SMILES): O=C(O)[C@H]1C[C@H](C(=O)O)N1 (relative stereo) [Az6, trans-azetidine-2,4-dicarboxylic acid]
- Calcium Influx % of stimulation by 10 μM GLU [1]: 103%
- PI hydrolysis % of stimulation by 20 μM GLU [2]: 83%

Structure (SMILES): NC(=O)[C@@H]1C[C@H](C(=O)O)N1 (relative stereo) [Az8, cis-4-carbamoylazetidine-2-carboxylic acid]
- % activity (potentiation of calcium influx) ([1]; agonist Asp 20 μM (Table 3)): 150%

Structure (SMILES): COC(=O)[C@H]1C[C@@H](C(=O)O)N1 (relative stereo) [Az11, cis-azetidine-2,4-dicarboxylic acid methyl ester]
- % activity (potentiation of calcium influx) ([1]; agonist Glu 10 μM (Table 3)): 122%

Structure (SMILES): O=C(O)[C@H]1C[C@@H](CO)N1 (relative stereo) [Az13, cis-4-(hydroxymethyl)azetidine-2-carboxylic acid]
- % activity (potentiation of calcium influx) ([1]; agonist Asp 10 μM (Table 3)): 159%

Structure (SMILES): NC(CCCP(=O)(O)O)C(=O)O (centres unmarked) [APV, 2-amino-5-phosphonovaleric acid]
- effect on increases in cGMP content induced by NMDA [3]: antagonized

Structure (SMILES): N[C@@H](CC(=O)O)C(=O)O [ASP, Aspartate, reference compound]
- ASP-stimulated calcium influx ([4]; ASP 50 μM, no PCP): 31.3 ± 3.4 nmol ^45 Ca^2+ /mg protein

Structure (SMILES): O=C(O)[C@@H]1C[C@H](C(=O)O)N1 [Az5, cis-azetidine-2,4-dicarboxylic acid]
- Calcium Influx % of stimulation by 10 μM GLU [1]: 207%
- effect on calcium influx stimulated by NMDA, GLU, ASP and QUIS ([1]; GC1 receptor): potentiated
- % activity (potentiation of calcium influx) ([1]; agonist Asp 10 μM (Table 3)): 196%
- % activity (potentiation of calcium influx) ([1]; agonist Asp 20 μM (Table 3)): 141%
- Percent Activity (potentiation of calcium influx) ([1]; agonist Aspartate (ASP) 20 μM): 144%
- % activity (potentiation of calcium influx) ([1]; agonist Glu 10 μM (Table 3)): 207%
- % activity (potentiation of calcium influx) ([1]; agonist Glu 20 μM (Table 3)): 157%
- Percent Activity (potentiation of calcium influx) ([1]; agonist Glutamate (GLU) 20 μM): 169%
- Percent Activity (potentiation of calcium influx) ([1]; agonist NMDA 20 μM): 188%
- Percent Activity (potentiation of calcium influx) ([1]; agonist Quisqualate (QUIS) 20 μM): 124%
- effect on the action of KAIN ([5]; GC2 receptor): not affected
- Percent Activity (potentiation of calcium influx) ([5]; agonist Kainate 20 μM): 104%
- PI hydrolysis % of stimulation by 20 μM GLU [2]: 124%
- ASP-stimulated calcium influx ([4]; ASP 50 μM + Az5 50 μM, PCP 20 nM): 57.2 ± 3.2 nmol ^45 Ca^2+ /mg protein
- ASP-stimulated calcium influx ([4]; ASP 50 μM + Az5 50 μM, PCP 50 nM): 32.2 ± 1.3 nmol ^45 Ca^2+ /mg protein
- ASP-stimulated calcium influx ([4]; ASP 50 μM + Az5 50 μM, PCP 100 nM): 13.3 ± 0.3 nmol ^45 Ca^2+ /mg protein
- ASP-stimulated calcium influx ([4]; ASP 50 μM + Az5 50 μM, no PCP): 64.5 ± 2.6 nmol ^45 Ca^2+ /mg protein
- action of PCP on ASP-stimulated signal transduction ([4]; with PCP): exhibits the ability to decrease the action of PCP on ASP-stimulated signal transduction
- displacement of specific [^3 H]PCP binding [6]: failed to displace the specific binding of [^3 H]PCP
- potentiation of the action of GLU ([7]; 50 μM Az5, from EC50 of GLU): 7 fold
- cGMP ([8]; 5 min, Az5 2 μg): 6.8 ± 0.8
- cGMP % Control ([8]; 5 min, Az5 2 μg): 142 % Control
- cGMP ([8]; 5 min, NMDA + Az5 together): 16.1 + 2.9
- cGMP % Control ([8]; 5 min, NMDA + Az5 together): 334 % Control
- cGMP ([8]; 10 min, Az5 10 μg): 14.9 ± 1.3
- cGMP % Control ([8]; 10 min, Az5 10 μg): 192 % Control
- cGMP ([8]; 10 min, NMDA + Az5 together): 16.5 + 2.8
- cGMP % Control ([8]; 10 min, NMDA + Az5 together): 211 % Control
- effect on action of endogenous receptor agonist and injected NMDA ([8]; both series): potentiated the action of the endogenous receptor agonist as well as the action of injected NMDA

Structure (SMILES): COC(=O)[C@@H]1C[C@H](C(=O)OC)N1 [Az7, cis-azetidine-2,4-dicarboxylic acid dimethyl ester]
- % activity (potentiation of calcium influx) ([1]; agonist Glu 50 μM (Table 3)): 68%

Structure (SMILES): NC(=O)[C@@H]1C[C@H](C(N)=O)N1 [Az9, cis-azetidine-2,4-dicarboxamide]
- % activity (potentiation of calcium influx) ([1]; agonist Asp 20 μM (Table 3)): 106%

Structure (SMILES): O=C(O)[C@H]1C[C@@H](C(=O)O)N1Cc1ccccc1 [Az10, cis-N-benzylazetidine-2,4-dicarboxylic acid]
- % activity (potentiation of calcium influx) ([1]; agonist Asp 10 μM (Table 3)): 121%

Structure (SMILES): O=C(O)[C@@H]1CCN1 [Az12, L-2-azetidinecarboxylic acid, reference compound]
- % activity (potentiation of calcium influx) ([1]; agonist Glu 20 μM (Table 3)): 110%

Structure (SMILES): N[C@@H](CCC(=O)O)C(=O)O [GLU, Glutamate]
- EC50 ([7]; in the absence of Az5): 51 µM
- EC50 ([7]; in the presence of 50 μM Az5): 7 µM

Structure (SMILES): CN[C@H](CC(=O)O)C(=O)O [NMDA, N-methyl-D-aspartate, reference compound]
- cGMP ([8]; 5 min, NMDA 2 μg): 5.6 ± 0.8
- cGMP % Control ([8]; 5 min, NMDA 2 μg): 136 % Control
- cGMP ([8]; 10 min, NMDA 1 μg): 10.5 ± 2.3
- cGMP % Control ([8]; 10 min, NMDA 1 μg): 135 % Control

Structure (SMILES): c1ccc(C2(N3CCCCC3)CCCCC2)cc1 [PCP, phencyclidine, reference compound]
- ASP-stimulated calcium influx ([4]; ASP 50 μM, PCP 20 nM): 23.0 ± 1.7 nmol ^45 Ca^2+ /mg protein
- ASP-stimulated calcium influx ([4]; ASP 50 μM, PCP 50 nM): 9.2 ± 0.5 nmol ^45 Ca^2+ /mg protein
- ASP-stimulated calcium influx ([4]; ASP 50 μM, PCP 100 nM): 0.7 ± 0.1 nmol ^45 Ca^2+ /mg protein
